Measured values: the Kinase Knowledgebase extract (Sharma et al. 2016)

Biological target: MAPK14;MAPK11;MAPK12 (human) (UniProt Q16539)
Test: Inhibition of p38 Kinase Activity

`COc1cccc(NC(=O)c2ccc(C)c(Nc3nc(N[C@H]4CCNC4)nc(N(C)CC(C)(C)C)n3)c2)c1` and `Cc1cccc(NC(=O)c2ccc(C)c(Nc3nc(N[C@H]4CCNC4)nc(N(C)CC(C)(C)C)n3)c2)c1` cannot be ordered by IC50: less than 1000 nM for the first, less than 1000 nM for the second.

`CC(CNc1cc(N2CCOCC2)nc(Nc2ccc3ncccc3c2)n1)c1ccccc1` (stereo not given) and `CC(CNc1nc(Nc2ccc3ncsc3c2)nc(N2CCCCC2)n1)c1ccccc1` (stereo not given) cannot be ordered by IC50: less than 10000 nM for the first, less than 10000 nM for the second.

`Nc1nc(NCCc2ccccc2)nc(Nc2ccc(S(=O)(=O)Nc3ncccn3)cc2)n1` and `CCC(CNc1nc(Cl)nc(Nc2ccc3ncsc3c2)n1)c1ccccc1` (stereo not given) cannot be ordered by IC50: less than 10000 nM for the first, less than 10000 nM for the second.

`CNC(=O)C1CCN(c2nc(NC[C@@H]3CC[C@@H]4C[C@H]3C4(C)C)nc(Nc3ccc4ncsc4c3)n2)CC1` and `CC(=O)N1CCN(c2nc(NC[C@@H]3CC[C@H]4C[C@@H]3C4(C)C)nc(Nc3ccc4ncsc4c3)n2)CC1` cannot be ordered by IC50: less than 10000 nM for the first, less than 10000 nM for the second.

`Cc1ccc(C(N)=O)cc1Nc1nc(N[C@H]2CCNC2)nc(N(C)C[C@H](C)c2ccccc2)n1` and `Cc1ccc(C(=O)Nc2ccccn2)cc1Nc1nc(N[C@H]2CCNC2)nc(N(C)CC(C)C)n1` cannot be ordered by IC50: less than 1000 nM for the first, less than 1000 nM for the second.

`CCCCN(C)c1nc(Nc2cc(C(N)=O)ccc2C)nc(N[C@H]2CCNC2)n1` and `Cc1ccc(C(N)=O)cc1Nc1nc(N[C@H]2CCNC2)nc(N(C)CC(C)(C)C)n1` cannot be ordered by IC50: less than 1000 nM for the first, less than 1000 nM for the second.

`CNC(=O)c1ccc(C)c(Nc2nc(N[C@H]3CCN(Cc4ccccc4)C3)nc(N(C)CC(C)C)n2)c1` and `CNC(=O)c1ccc(C)c(Nc2nc(N[C@H]3CCN(Cc4ccccc4OC)C3)nc(N(C)CC(C)C)n2)c1` cannot be ordered by IC50: less than 1000 nM for the first, less than 1000 nM for the second.

`Cc1ccc(C(N)=O)cc1Sc1nc(N[C@@H]2CCNC2)nc(N(C)CC(C)(C)C)n1` and `Cc1ccc(C(N)=O)cc1Nc1nc(N[C@H]2CCCNC2)nc(N(C)CC(C)(C)C)n1` cannot be ordered by IC50: less than 30000 nM for the first, less than 1000 nM for the second.

`C=CCN1CC[C@H](Nc2nc(Nc3cc(C(=O)NCC)ccc3C)nc(N(C)CC3CCCC3)n2)C1` and `CCNC(=O)c1ccc(C)c(Nc2nc(N[C@H]3CCNC3)nc(N(C)CC3CCCC3)n2)c1` cannot be ordered by IC50: less than 1000 nM for the first, less than 1000 nM for the second.

`CN(CC(C)(C)C)c1nc(Cc2cccc(C(N)=O)c2)nc(N[C@H]2CCNC2)n1` and `Cc1ccc(C(=O)O)cc1Nc1nc(N[C@H]2CCNC2)nc(N(C)CC(C)(C)C)n1` cannot be ordered by IC50: less than 1000 nM for the first, less than 1000 nM for the second.

`CNC(=O)c1ccc(C)c(Oc2nc(N(C)CC(C)(C)C)nc(N3CCCN(C)CC3)n2)c1` and `CONC(=O)c1ccc(C)c(Oc2nc(N(C)CC(C)(C)C)nc(N3CCCN(C)CC3)n2)c1` cannot be ordered by IC50: less than 30000 nM for the first, less than 30000 nM for the second.

`CSc1nc2ccc(Nc3nc(NC[C@H](C)O)nc(N[C@@H](C)C4CCCCC4)n3)cc2s1` and `CC(C)NC(=O)N1CCN(c2nc(NCC(C)c3ccccc3)nc(Nc3ccc4ncsc4c3)n2)CC1` (stereo not given) cannot be ordered by IC50: less than 10000 nM for the first, less than 10000 nM for the second.

`Cc1ccc(C(N)=O)cc1Nc1nc(N[C@H]2CCN(Cc3ccc(O)cc3)C2)nc(N(C)CC(C)C)n1` and `Cc1ccc(C(N)=O)cc1Nc1nc(N[C@H]2CCN(Cc3ccc(Cl)cc3)C2)nc(N(C)CC(C)C)n1` cannot be ordered by IC50: less than 1000 nM for the first, less than 1000 nM for the second.

`OC(CNc1nc(Cl)nc(Nc2ccc3ncsc3c2)n1)c1ccccc1` (stereo not given) and `CC(CNc1nc(Nc2ccc3ncsc3c2)nc(N2CCN(C(=N)N)CC2)n1)c1ccccc1` (stereo not given) cannot be ordered by IC50: less than 10000 nM for the first, less than 10000 nM for the second.

`Cc1ccc2ncn(-c3nc(F)cc(NCCOC(C)C)n3)c2c1` and `Cc1ccc(C(N)=O)cc1Nc1nc(N[C@H]2CCN(Cc3ccccc3F)C2)nc(N(C)CC(C)C)n1` cannot be ordered by IC50: less than 10000 nM for the first, less than 1000 nM for the second.

`CNCCN(C)c1nc(NCC2CCC3CC2C3(C)C)nc(Nc2ccc3ncsc3c2)n1` (stereo not given) and `CN(CC1CCC2CC1C2(C)C)c1nc(Nc2ccc3ncsc3c2)nc(N2CCN(C(=O)OC(C)(C)C)CC2)n1` (stereo not given) cannot be ordered by IC50: less than 10000 nM for the first, less than 10000 nM for the second.

`CCONC(=O)c1ccc(C)c(Nc2nc(N(C)CC(C)(C)C)nc(N3CCCN(C)CC3)n2)c1` and `CCONC(=O)c1ccc(C)c(Nc2nc(NC)nc(N(C)CC(C)(C)C)n2)c1` cannot be ordered by IC50: less than 1000 nM for the first, less than 1000 nM for the second.

`CC1(C)[C@H]2CC[C@@H](CNc3nc(N4CCCNCC4)nc(N4CCc5ccc([N+](=O)[O-])cc54)n3)[C@@H]1C2` and `CC1(C)C2CCC(CNc3nc(Nc4ccc5ncoc5c4)nc(N4CCN(C(=O)CCC(=O)O)CC4)n3)C1C2` (stereo not given) cannot be ordered by IC50: less than 1000 nM for the first, less than 10000 nM for the second.

`CNc1nc(Nc2cc(C(=O)NOC)ccc2C)nc(N(C)CC(C)(C)C)n1` and `CONC(=O)c1ccc(C)c(Nc2nc(N[C@H]3CCN(C(C)C)C3)nc(N(C)CC(C)(C)C)n2)c1` cannot be ordered by IC50: less than 1000 nM for the first, less than 1000 nM for the second.

`Cc1ccc(C(=O)Nc2cccc(N(C)C)c2)cc1Nc1nc(N[C@H]2CCNC2)nc(N(C)CC(C)(C)C)n1` and `CCONC(=O)c1ccc(C)c(Nc2nc(N[C@H]3CCNC3)nc(N(C)CC(C)(C)C)n2)c1` cannot be ordered by IC50: less than 1000 nM for the first, less than 1000 nM for the second.

`Cc1ccc(C(N)=O)cc1Nc1nc(NC[C@@H]2CC[C@H]3C[C@H]2C3(C)C)nc(N[C@H]2CCNC2)n1` and `Cc1ccc(C(N)=O)cc1Nc1nc(N)nc(NC[C@@H]2CC[C@H]3C[C@@H]2C3(C)C)n1` cannot be ordered by IC50: less than 1000 nM for the first, less than 1000 nM for the second.

`Cc1ccc(C(N)=O)cc1Nc1nc(NCC2(c3ccc(Cl)cc3)CC2)nc(N[C@H]2CCNC2)n1` and `CCC(C)(C)c1nc(Nc2cc(C(N)=O)ccc2C)nc(N[C@H]2CCNC2)n1` cannot be ordered by IC50: less than 1000 nM for the first, less than 1000 nM for the second.

`Cc1ccc(C(N)=O)cc1Nc1nc(N[C@H]2CN[C@@H](CO)C2)nc(N(C)CC(C)(C)C)n1` and `Cc1ccc(C(N)=O)cc1Nc1nc(N[C@H]2CN[C@H](C)C2)nc(N(C)CC(C)(C)C)n1` cannot be ordered by IC50: less than 1000 nM for the first, less than 1000 nM for the second.

`Cc1ccc(C(N)=O)cc1Nc1nc(N[C@@H]2CCN(C(C)CC(C)C)C2)nc(N(C)CC(C)C)n1` (stereo not given in full) and `COCC(C)N1CC[C@@H](Nc2nc(Nc3cc(C(N)=O)ccc3C)nc(N(C)CC(C)(C)C)n2)C1` (stereo not given in full) cannot be ordered by IC50: less than 1000 nM for the first, less than 1000 nM for the second.

`CNC(=O)c1ccc(C)c(Nc2nc(N[C@H]3CCNC3)nc(N(C)CC(C)C)n2)c1` and `CNC(=O)c1ccc(C)c(Oc2nc(N[C@@H]3CCNC3)nc(N(C)CC(C)(C)C)n2)c1` cannot be ordered by IC50: less than 1000 nM for the first, less than 30000 nM for the second.

`CONC(=O)c1ccc(C)c(Nc2nc(N(C)CC(C)(C)C)nc(-n3ccnc3)n2)c1` and `CONC(=O)c1ccc(C)c(Nc2nc(NCCn3cccn3)nc(N(C)CC(C)(C)C)n2)c1` cannot be ordered by IC50: less than 1000 nM for the first, less than 1000 nM for the second.

`Cc1ccc(C(N)=O)cc1Sc1nc(N(C)CC(C)(C)C)nc(N2CCCN(C)CC2)n1` and `CONC(=O)c1ccc(F)c(Sc2nc(N(C)CC(C)(C)C)nc(N3CCCN(C)CC3)n2)c1` cannot be ordered by IC50: less than 30000 nM for the first, less than 30000 nM for the second.

`CCN1CC[C@@H](Nc2nc(Nc3cc(C(N)=O)ccc3C)nc(N(C)CC(C)(C)C)n2)C1` and `Cc1ccccc1CN1CC[C@H](Nc2nc(Nc3cc(C(N)=O)ccc3C)nc(N(C)CC(C)C)n2)C1` cannot be ordered by IC50: less than 1000 nM for the first, less than 1000 nM for the second.

`COc1ccc(CN2CCC(Nc3nc(Nc4cc(C(N)=O)ccc4C)nc(N(C)CC(C)C)n3)C2)cc1` (stereo not given) and `Cc1ccc(C(N)=O)cc1Nc1nc(N[C@H]2CCN(Cc3cccc(F)c3)C2)nc(N(C)CC(C)C)n1` cannot be ordered by IC50: less than 1000 nM for the first, less than 1000 nM for the second.

`CCCCOc1nc(Nc2cc(C(N)=O)ccc2C)nc(NC2CCCC2)n1` and `Cc1ccc(C(N)=O)cc1Nc1nc(N[C@H]2CCN(Cc3cccnc3)C2)nc(N(C)CC(C)C)n1` cannot be ordered by IC50: less than 1000 nM for the first, less than 1000 nM for the second.

`CONC(=O)c1ccc(C)c(Nc2nc(N[C@H]3CCNC3)cc(N(C)CC(C)(C)C)n2)c1` and `CCNC(=O)c1ccc(C)c(Nc2nc(NC[C@H]3CCCN3)nc(N(C)CC(C)(C)C)n2)c1` cannot be ordered by IC50: less than 1000 nM for the first, less than 1000 nM for the second.

`Cc1cccc(CN2CC[C@H](Nc3nc(Nc4cc(C(N)=O)ccc4C)nc(N(C)CC(C)C)n3)C2)n1` and `CONC(=O)c1ccc(C)c(Sc2nc(NCc3ccccn3)nc(N(C)CC(C)(C)C)n2)c1` cannot be ordered by IC50: less than 1000 nM for the first, less than 30000 nM for the second.

`CNCCN(C)c1nc(NCc2ccc3c(c2)OCO3)nc(NCC(C)c2ccccc2)n1` (stereo not given) gave an IC50 of less than 10000 nM.
